Consider six molecules from patent publication US6605635B1, “N-substituted benzyl or phenyl aromatic sulfamides compounds and the use thereof” (Shanghai Institute of Materia Medica Chinese Academy of …, priority 1999, dated 2003).

For data set [1], the system named is rat aconitine-induced arrhythmia. Type of data set: in vivo, rats. The note with it: hydrochloride salts; for Prophylactic inde: ratio LD50:ED50, rats; for Therapeutic ind: ratio LD50:ED, rats.
The subject of data set [2] is acute myocardial ischemia induced arrhythmia. Kind of data set: acute myocardial ischemia induced arrhythmia model (coronary artery ligation) in anesthetized rats. Type of data set: in vivo. From the text:
1. An acute myocardial ischemia induced arrhythmia model was obtained by conducting chest opening to expose the heart and […] of the anterior descending branch of the coronary artery in anesthetized rats (“Methods in Pharmacological Experiments”, Second Edition, p. 1022, People's Medical Publishing House, Beijing, 1991).

Data set [3] relates to beiwutine induced rat arrhythmia. Description: beiwutine induced rat arrhythmia model. Type of data set: in vivo.
Data set [4] relates to ouabain induced guinea pig arrhythmia. Kind of data set: ouabain induced guinea pig arrhythmia model. Type of data set: in vivo.
Data set [5] concerns arrhythmia patients. The note with it: cited from earlier work.

With `O=S(=O)(Nc1cc(CN2CCCCC2)c(O)c(CN2CCCCC2)c1)c1cccc2ccccc12` [Compound B-87836, N-[3,5-bis(1-Piperidinomethyl)-4-hydroxy]phenyl-1-naphthalenesulfonamide], in data set [1], the Prophylactic inde is listed as 33.5 and the Therapeutic ind is reported as 9.7.
For orientation: ED50 means the midpoint of the dose-response relation. A low value points to greater potency. For `Oc1c(CN2CCCC2)cc(Nc2ncnc3ccccc23)cc1CN1CCCC1` [changrolin], the “inhibition of the incidence of ventrical premature beats” value in data set [2] stood at 50%. Moreover, in data set [3], the ED50 is 3 mg/kg. For the same molecule, the “amount of ouabain used for inducing ventrical premature beats, ventricular tachycardia and ventricular fibrillation” value in data set [4] is listed as “significantly increase”. For the same molecule, in data set [5] (2-3 days after oral administration, patients suffering from arrhythmia), the ventricular premature beats entry is reported as “disappear”. The “ventricular premature beats and ventricular tachycardia” value in data set [5] (i.v. injection or instillation, patients) was “significant reduction or even disappearence”. In data set [5] (oral administration for over one month, patients, retrogresses after ceasing administration), the skin side effect entry is given as “reversible pigmentation on the skin”.
“N-[3,5-bis(1 -Pyrrolidinomethyl)-4-hydroxyl]benzyl-4-chlorobenzenesulfonamide [Compound B-87829]”: in data set [1], the Prophylactic inde stood at 55 and the Therapeutic ind is reported as 8.6.
As to “N-[3,5-bis(1-Pyrrolidinomethyl)-4-hydroxy]phenyl-4-chlorobenzenesulfonamide [Compound B-86810]”, the Prophylactic inde in data set [1] was found to be 5.3.
In the case of “N-[3,5-bis(1-Pyrrolidinomethyl)-4-hydroxy]phenyl-N-ethyl-4-toluenesulfonamide [Compound B-86809]”, in data set [1], the Prophylactic inde came to 1.1 and the Therapeutic ind came to 4.0.
In the case of “N-[3,5-bis(1-Pyrrolidinomethyl)-4-hydroxy]phenyl-N-methyl-4-acetamidobenzenesulfonamide [Compound B-87827]”, in data set [1], the Prophylactic inde is on record as 3.0 and the Therapeutic ind is listed as 2.
